The values below come from US12109292B2, “Bioflavonoid compositions and their use” (Oraldent Limited, priority 2018, dated 2024).

For one experiment, the system named is Streptococcus mutans. Briefly: Inhibition zone assay on agar plate. Type of experiment: cell-based. The conditions noted are these: 48 h at 37° C. anaerobe. On the procedure: The antibacterial activity of ε-polylysine was semi-quantitatively assessed in a inhibition zone assay. 0.1 mL of a confluent Streptococcus mutans culture was spread over a Brain Heart Infusion (BHI) agar plate. Filter platelets (5 mm diameter) soaked with 0.01 mL substance were applied on plate. Plates were incubated 48 h at 37° C. under anaerobe conditions. The diameter of outer limit of the inhibition zones were measured, the diameter of the platelet deduced and the half result considered the radius of inhibition rings. Concentrations were tested in triplicate and their results averaged.

For experiment [1], the system named is Escherichia coli. Kind of experiment: Direct exposure of Escherichia coli mini cultures, minimal inhibitory concentration by turbidity. It is filed as cell-based. The conditions noted are these: E. coli, 5 hours at 37° C., extrapolated from FIG. 2.
Protocol: Growth inhibition was monitored by measuring turbidity of mini cultures after 5 hours of aerobe incubation at 37° C. under agitation. Solutions were diluted to the half in cascade.
The subject of experiment [2] is Escherichia coli. Briefly: Pre-treatment of high binding plates with Citrox/ε-polylysine, then Escherichia coli growth inhibition (turbidity). It is filed as cell-based. On the procedure:
High Binding plates were pre-treated with 0.1 mL of pure Citrox/ε-Polylysine solutions incubated 60′ at room temperature. The concentrations of Citrox range from 0.06% to 4%. The ε-Polylysine concentrations range from 30 mg/L to 120 mg/L. The wells have been emptied and rinsed with 0.2 mL bi-distilled water. 0.2 mL of a diluted Escherichia coli culture (turbidity: 5 m OD at 600 nm) were given to the pre-treated wells and incubated for 3 hours at 37° C. Turbidity were measured at 600 nm and percentage of growth inhibition in comparison to untreated well calculated (FIG. 1).

The subject of the next experiment is S. mutans. Briefly: Short exposure assay (bactericidal effect), colony count. Type of experiment: cell-based, Streptococcus mutans. The conditions noted are these: 0.05%; 10 minutes; 5000 CFU inoculum. On the procedure: The short-term antibacterial activity of Citrox was semi-quantitatively assessed in a short exposure assay. A S. mutans culture, diluted in order to contain 5000 Colony Forming Units, was incubated for 10 minutes in presence of the antibacterial substance and extemporarily plated onto a BHI agar plate. Plates were incubated at 37° C. under anaerobe conditions and colony counted. […] Citrox 0.5% reduced the count of CFU to the half (<3000 CFU).

On to ε-Polylysine, for which the results for the “Radius of inhibition rings” value in the experiment on Streptococcus mutans (10 mg/L), in the experiment with Streptococcus mutans (100 mg/L) and with Streptococcus mutans (1000 mg/L) were 0.5 mm, 2.5 mm and 6.5 mm, respectively. Further, in the experiment with Escherichia coli [1], the “Minimal inhibitory concentration (MIC)” value is 4 µg/mL. The “highest ε-polylysine concentration that does not affect significantly the antibacterial effect of Citrox pretreatment” value in the experiment with Escherichia coli [2] was determined as 30 mg/L. In addition, the “effect of plate-absorbed substance on growth of bacteria in suspension” value in the experiment on Escherichia coli [2] (high binding plate, substance absorbed onto solid surface) was “does not affect the growth of bacteria in suspension”.

For the molecule `OO` [Water peroxide, reference compound], the “Radius of inhibition rings” value in the experiment on Streptococcus mutans (0.1%) worked out at 1.5 mm; in the experiment on Streptococcus mutans (1%) it was 5 mm. In addition, in the experiment with S. mutans, the “colony formation after short exposure” value is “complete absence of colony formation”.
